# Data published in PMC12446476 (Nature Communications, 2025).
# Like-named read-outs stand apart in the source and are kept apart here.
# Tested on: N. gonorrhoeae
# Assay: MIC determination, Etest
# Type: cell-based, Neisseria gonorrhoeae
# Conditions: for MIC: Neisseria gonorrhoeae, comparator antibiotics, read-out: Minimum inhibitory concentration
# Description: The 2024 WHO N. gonorrhoeae reference strains were used for quality control. Only whole MIC doubling dilutions are reported. Clinical breakpoints or the epidemiological cutoff (ECOFF, to indicate azithromycin resistance) from EUCAST (v14.0, https://www.eucast.org/clinical_breakpoints) were used to classify isolates as antimicrobial susceptible or resistant. […] Two times the standard inoculum defined by CLSI was used to establish consistent growth in untreated control samples for some strains. In vitro time-kill assays were performed according to CLSI guidelines[65] using Columbia Broth (BD Difco) supplemented with 1% IsoVitaleX Enrichment (BD). Viable bacterial counts were generated by plating 10-fold serially diluted samples on GC agar plates containing 1% IsoVitaleX Enrichment (BD).
smiles,measurement,setting,value
CC[C@H]1OC(=O)[C@H](C)[C@@H](O[C@H]2C[C@@](C)(OC)[C@@H](O)[C@H](C)O2)[C@H](C)[C@@H](O[C@@H]2O[C@H](C)C[C@H](N(C)C)[C@H]2O)[C@](C)(O)C[C@@H](C)CN(C)[C@H](C)[C@@H](O)[C@]1(C)O [Azithromycin],MIC,"clinical N. gonorrhoeae isolate 50, Sweden 2023",0.25 µg/mL
same,MIC,"clinical N. gonorrhoeae isolate 51, Sweden 2023",0.064 µg/mL
same,MIC,"clinical N. gonorrhoeae isolate 52, Sweden 2023",0.25 µg/mL
same,MIC,"clinical N. gonorrhoeae isolate 53, Sweden 2023",0.125 µg/mL
same,MIC,"clinical N. gonorrhoeae isolate 54, Sweden 2023",0.5 µg/mL
same,MIC,"clinical N. gonorrhoeae isolate 55, Sweden 2023",0.5 µg/mL
same,MIC,"clinical N. gonorrhoeae isolate 56, Sweden 2023",0.25 µg/mL
same,MIC,"clinical N. gonorrhoeae isolate 57, Sweden 2023",0.064 µg/mL
same,MIC,"clinical N. gonorrhoeae isolate 58, Sweden 2023",0.125 µg/mL
same,MIC,"clinical N. gonorrhoeae isolate 59, Sweden 2023",0.064 µg/mL
same,MIC,"clinical N. gonorrhoeae isolate 60, Sweden 2023",0.5 µg/mL
same,MIC,"clinical N. gonorrhoeae isolate 61, Sweden 2023",0.125 µg/mL
same,MIC,"clinical N. gonorrhoeae isolate 62, Sweden 2023",0.016 µg/mL
same,MIC,"clinical N. gonorrhoeae isolate 63, Sweden 2023",0.25 µg/mL
same,MIC,"clinical N. gonorrhoeae isolate 64, Sweden 2023",0.5 µg/mL
same,MIC,"clinical N. gonorrhoeae isolate 65, Sweden 2023",0.064 µg/mL
same,MIC,"clinical N. gonorrhoeae isolate 66, Sweden 2023",0.25 µg/mL
same,MIC,"clinical N. gonorrhoeae isolate 67, Sweden 2023",0.25 µg/mL
same,MIC,"clinical N. gonorrhoeae isolate 68, Sweden 2023",0.064 µg/mL
same,MIC,"clinical N. gonorrhoeae isolate 69, Sweden 2023",0.25 µg/mL
same,MIC,"clinical N. gonorrhoeae isolate 70, Sweden 2023",0.125 µg/mL
same,MIC,"clinical N. gonorrhoeae isolate 71, Sweden 2023",2 µg/mL
same,MIC,"clinical N. gonorrhoeae isolate 72, Sweden 2023",0.125 µg/mL
same,MIC,"clinical N. gonorrhoeae isolate 73, Sweden 2023",0.064 µg/mL
same,MIC,"clinical N. gonorrhoeae isolate 74, Sweden 2023",0.5 µg/mL
same,MIC,"clinical N. gonorrhoeae isolate 75, Sweden 2023",0.5 µg/mL
same,MIC,"clinical N. gonorrhoeae isolate 76, Sweden 2023",0.125 µg/mL
same,MIC,"clinical N. gonorrhoeae isolate 77, Sweden 2023",0.064 µg/mL
same,MIC,"clinical N. gonorrhoeae isolate 78, Sweden 2023",0.25 µg/mL
same,MIC,"clinical N. gonorrhoeae isolate 79, Sweden 2023",0.064 µg/mL
same,MIC,"clinical N. gonorrhoeae isolate 80, Sweden 2023",0.125 µg/mL
same,MIC,"clinical N. gonorrhoeae isolate 81, Sweden 2023",0.25 µg/mL
same,MIC,"clinical N. gonorrhoeae isolate 82, Sweden 2023",2 µg/mL
same,MIC,"clinical N. gonorrhoeae isolate 83, Sweden 2023",0.032 µg/mL
same,MIC,"clinical N. gonorrhoeae isolate 84, Sweden 2023",0.5 µg/mL
same,MIC,"clinical N. gonorrhoeae isolate 85, Sweden 2023",0.125 µg/mL
same,MIC,"clinical N. gonorrhoeae isolate 86, Sweden 2023",0.125 µg/mL
same,MIC,"clinical N. gonorrhoeae isolate 87, Sweden 2023",0.125 µg/mL
same,MIC,"clinical N. gonorrhoeae isolate 88, Sweden 2023",0.5 µg/mL
same,MIC,"clinical N. gonorrhoeae isolate 89, Sweden 2023",0.25 µg/mL
same,MIC,"clinical N. gonorrhoeae isolate 90, Sweden 2023",0.125 µg/mL
same,MIC,"clinical N. gonorrhoeae isolate 91, Sweden 2023",0.032 µg/mL
same,MIC,"clinical N. gonorrhoeae isolate 92, Sweden 2023",0.5 µg/mL
same,MIC,"clinical N. gonorrhoeae isolate 93, Sweden 2023",0.032 µg/mL
same,MIC,"clinical N. gonorrhoeae isolate 94, Sweden 2023",0.032 µg/mL
same,MIC,"clinical N. gonorrhoeae isolate 95, Sweden 2023",0.5 µg/mL
same,MIC,"clinical N. gonorrhoeae isolate 96, Sweden 2023",0.25 µg/mL
same,MIC,"clinical N. gonorrhoeae isolate 97, Sweden 2023",0.25 µg/mL
same,MIC,"clinical N. gonorrhoeae isolate 98, Sweden 2023",0.064 µg/mL
same,MIC,"clinical N. gonorrhoeae isolate 99, Sweden 2023",0.064 µg/mL
same,MIC,"clinical N. gonorrhoeae isolate 100, Sweden 2023",0.064 µg/mL
same,"AMR phenotype (susceptibility category, EUCAST)",WHO F,S
same,"AMR phenotype (susceptibility category, EUCAST)",WHO H,S
same,"AMR phenotype (susceptibility category, EUCAST)",WHO K,S
same,"AMR phenotype (susceptibility category, EUCAST)",WHO L,S
same,"AMR phenotype (susceptibility category, EUCAST)",WHO M,S
same,"AMR phenotype (susceptibility category, EUCAST)",WHO O,S
same,"AMR phenotype (susceptibility category, EUCAST)",WHO P,R
same,"AMR phenotype (susceptibility category, EUCAST)",WHO Q,R
same,"AMR phenotype (susceptibility category, EUCAST)",WHO R,S
same,"AMR phenotype (susceptibility category, EUCAST)",WHO S2,R
same,"AMR phenotype (susceptibility category, EUCAST)",WHO U,R
same,"AMR phenotype (susceptibility category, EUCAST)",WHO V,R
same,"AMR phenotype (susceptibility category, EUCAST)",WHO X,S
same,"AMR phenotype (susceptibility category, EUCAST)",WHO Y,S
same,"AMR phenotype (susceptibility category, EUCAST)",WHO Z,S
